Data: paper PMC5418711, “Safety and efficacy of the choline analogue SAR97276 for malaria treatment: results of two phase 2, open-label, multicenter trials in African patients” (Malaria Journal, 2017)
Where two headings read alike, the source gives them in different places.

Legend:
[1] = Study 1: safety assessment (TEAEs, laboratory tests, ECG); assay type: in vivo, human; settings: for QTc interval - change from baseline Borderline: Incr. from B 30-60 ms / QTc interval - change from baseline Prolonged: Incr. from B > 60 ms / QTc interval Prolonged: > 450 ms (m); > 470 ms (f) / QTc interval ≥ 500 ms: TEAE period
Procedure: Follow-up visits were done on day 6, 8, 14 ± 2, 21 ± 2, 28 ± 2 (Study 1); and day 7, 14 ± 2, 21 ± 2, 28 ± 2 (Study 2). […] Parasitemia was determined microscopically by Giemsa stained thick blood smear by two trained microscopists blinded to each other. […] For Study 2 respiratory parameters (respiratory rate, peak flow, efficiency of cough) were also checked at baseline and 30 min after first dose on day 1, 2 and 3.
Treatment emergent adverse events (TEAEs) were defined as AEs that developed or worsened during the treatment period until day 6 following the end of study treatment.

[2] = Population pharmacokinetics in plasma, Study 1 and Study 2; assay type: in vivo, human; settings: for AUC(0-t) / Cmax / Vd / clearance: human, plasma; for AUC(0-t) / Cmax: mean and SD; for AUC(0-t): read-out: AUC or AUC0-24,ss; for Cmax: read-out: Cmax or Cmax,ss; for Vd: read-out: Median central volume of distribution V2; for clearance: read-out: Median clearance (converted)
Procedure: Rescue therapy was initiated in case of clinical aggravation of recrudescent parasites in both studies, the exact description for each study can be seen in the supplement (Additional file 3). Pharmacokinetic analysis: Plasma samples were assayed using a validated liquid chromatography-mass spectrometry method with a limit of quantification of 1 ng/ml for SAR97276. The pharmacokinetic analysis was performed using a population pharmacokinetic modeling approach.
The pharmacokinetics of SAR97276 were best described by a three-compartment model, with a first order absorption (ka), with interindividual variability on clearances and central volume of distribution.

malaria mouse model = tested on: malaria mouse model; set-up: method as in PMID 11847346, PMID 15492221, PMID 12878525; settings: cited from earlier work; for Curative 4-day dose: mouse model
malaria monkey model = tested on: malaria monkey model; set-up: method as in PMID 11847346, PMID 15492221, PMID 12878525; settings: cited from earlier work
[3] = Group 1A, one patient, three days after study medication
[4] = Group 1A: 1 day IM 0.18 mg/kg, adults, N=34
[5] = Group 1A: 1 day IM 0.18 mg/kg, adults
[6] = Group 1B: 3 days IM 0.18 mg/kg, adults, N=30
[7] = Group 1B: 3 days IM 0.18 mg/kg, adults
[8] = Group 1C: 1 day IV 0.14 mg/kg, adults, N=30
[9] = Group 1C: 1 day IV 0.14 mg/kg, adults
[10] = Group 1D: 3 days IM 0.18 mg/kg, children, N=19
[11] = Group 1D: 3 days IM 0.18 mg/kg, children
[12] = im, 0.18 mg/kg, Group 1D: 3 days IM 0.18 mg/kg, children, n=14
[13] = im, 0.18 mg/kg, Study 1 Adults IM (1A + 1B) 0.18 mg/kg, n=64
[14] = im, 0.5 mg/kg, Group 2A: 3 days IM once daily 0.5 mg/kg, teenagers, n=8
[15] = intramuscular, 0.18 mg/kg, children
[16] = iv, 0.14 mg/kg, Group 1C: 1 day IV 0.14 mg/kg, adults, n=30

Cc1c(CCO)sc[n+]1CCCCCCCCCCCC[n+]1csc(CCO)c1C [SAR97276A]
ALT increase in the patient with cytolytic hepatitis [1, 3]: 4.5 × upper limit than normal (ULN) | AST increase in the patient with cytolytic hepatitis [1, 3]: 11 × ULN | Total bilirubin in the patient with cytolytic hepatitis [1, 3]: ≥ 1.5 × ULN | Patients who did not complete study treatment [1, 4]: 0 | Patients with any TEAE [1, 4]: 18 (52.9%) | TEAE: Arthralgia [1, 4]: 1 (2.9%) | TEAE: Convulsion [1, 4]: 0 | TEAE: Cough [1, 4]: 2 (5.9%) | TEAE: Cytolytic hepatitis [1, 4]: 1 (2.9%) | TEAE: Dizziness [1, 4]: 1 (2.9%) | TEAE: Eyelid pruritus [1, 4]: 0 | TEAE: Gastrointestinal disorders [1, 4]: 3 (8.8%) | TEAE: General Disorders/Administration site disorders [1, 4]: 3 (8.8%) | TEAE: Headache [1, 4]: 4 (11.8%) | TEAE: Hypertension [1, 4]: 0 | TEAE: Malaria [1, 4]: 2 (5.9%) | TEAE: Neck pain [1, 4]: 2 (5.9%) | TEAE: Paraesthesia [1, 4]: 0 | TEAE: Pneumonia [1, 4]: 1 (2.9%) | TEAE: Pruritus [1, 4]: 0 | TEAE: Rhinitis [1, 4]: 2 (5.9%) | TEAE: Thrombocytopenia [1, 4]: 0 | TEAE: Urticaria [1, 4]: 1 (2.9%) | TEAE: Vertigo [1, 4]: 2 (5.9%) | QTc interval - change from baseline Borderline: Incr. from B 30-60 ms [1, 5]: 0/33 | QTc interval - change from baseline Prolonged: Incr. from B > 60 ms [1, 5]: 0/33 | QTc interval Prolonged: > 450 ms (m); > 470 ms (f) [1, 5]: 0/33 | QTc interval ≥ 500 ms [1, 5]: 0/33 | Further patients with an elevated AST (> 3 x ULN), apart from the SAE patient ([1]; Group 1A: adults, single IM dose): one | Patients who did not complete study treatment [1, 6]: 0 | Patients with any TEAE [1, 6]: 18 (60%) | Patients with any serious AE [1, 6]: 0 | TEAE: Bradycardia [1, 6]: 0 | TEAE: Convulsion [1, 6]: 0 | TEAE: Cough [1, 6]: 2 (6.7%) | TEAE: Cytolytic hepatitis [1, 6]: 0 | TEAE: Dizziness [1, 6]: 1 (3.3%) | TEAE: Eyelid pruritus [1, 6]: 0 | TEAE: Gastrointestinal disorders [1, 6]: 7 (23.3%) | TEAE: General Disorders/Administration site disorders [1, 6]: 1 (3.3%) | TEAE: Headache [1, 6]: 4 (13.3%) | TEAE: Hypertension [1, 6]: 1 (3.3%) | TEAE: Malaria [1, 6]: 0 | TEAE: Neck pain [1, 6]: 1 (3.3%) | TEAE: Paraesthesia [1, 6]: 1 (3.3%) | TEAE: Pneumonia [1, 6]: 0 | TEAE: Pruritus [1, 6]: 1 (3.3%) | TEAE: Rhinitis [1, 6]: 0 | TEAE: Tachycardia [1, 6]: 1 (3.3%) | TEAE: Thrombocytopenia [1, 6]: 0 | TEAE: Urticaria [1, 6]: 0 | TEAE: Vertigo [1, 6]: 2 (6.7%) | QTc interval - change from baseline Borderline: Incr. from B 30-60 ms [1, 7]: 0/30 | QTc interval - change from baseline Prolonged: Incr. from B > 60 ms [1, 7]: 0/30 | QTc interval Prolonged: > 450 ms (m); > 470 ms (f) [1, 7]: 0/30 | QTc interval ≥ 500 ms [1, 7]: 0/30 | Patients who did not complete study treatment [1, 8]: 0 | Patients with any TEAE [1, 8]: 14 (46.7%) | Patients with any serious AE [1, 8]: 0 | TEAE: Arthralgia [1, 8]: 1 (3.3%) | TEAE: Bradycardia [1, 8]: 0 | TEAE: Convulsion [1, 8]: 0 | TEAE: Cough [1, 8]: 1 (3.3%) | TEAE: Cytolytic hepatitis [1, 8]: 0 | TEAE: Dizziness [1, 8]: 2 (6.7%) | TEAE: Eyelid pruritus [1, 8]: 0 | TEAE: Gastrointestinal disorders [1, 8]: 1 (3.3%) | TEAE: General Disorders/Administration site disorders [1, 8]: 0 | TEAE: Headache [1, 8]: 3 (10%) | TEAE: Hypertension [1, 8]: 0 | TEAE: Malaria [1, 8]: 0 | TEAE: Neck pain [1, 8]: 0 | TEAE: Paraesthesia [1, 8]: 0 | TEAE: Pneumonia [1, 8]: 0 | TEAE: Pruritus [1, 8]: 0 | TEAE: Rhinitis [1, 8]: 0 | TEAE: Tachycardia [1, 8]: 0 | TEAE: Thrombocytopenia [1, 8]: 0 | TEAE: Urticaria [1, 8]: 0 | TEAE: Vertigo [1, 8]: 0 | QTc interval - change from baseline Prolonged: Incr. from B > 60 ms [1, 9]: 0/30 | QTc interval Prolonged: > 450 ms (m); > 470 ms (f) [1, 9]: 0/30 | QTc interval ≥ 500 ms [1, 9]: 0/30 | Patients with any TEAE [1, 10]: 11 (57.9%) | TEAE: Arthralgia [1, 10]: 0 | TEAE: Bradycardia [1, 10]: 0 | TEAE: Convulsion [1, 10]: 1 (5.3%) | TEAE: Cough [1, 10]: 1 (5.3%) | TEAE: Cytolytic hepatitis [1, 10]: 0 | TEAE: Dizziness [1, 10]: 0 | TEAE: Eyelid pruritus [1, 10]: 1 (5.3%) | TEAE: Gastrointestinal disorders [1, 10]: 5 (26.3%) | TEAE: General Disorders/Administration site disorders [1, 10]: 1 (5.3%) | TEAE: Headache [1, 10]: 3 (15.8%) | TEAE: Hypertension [1, 10]: 0 | TEAE: Malaria [1, 10]: 0 | TEAE: Neck pain [1, 10]: 0 | TEAE: Paraesthesia [1, 10]: 0 | TEAE: Pneumonia [1, 10]: 0 | TEAE: Pruritus [1, 10]: 0 | TEAE: Rhinitis [1, 10]: 0 | TEAE: Tachycardia [1, 10]: 0 | TEAE: Urticaria [1, 10]: 0 | TEAE: Vertigo [1, 10]: 0 | QTc interval - change from baseline Borderline: Incr. from B 30-60 ms [1, 11]: 0/18 | QTc interval - change from baseline Prolonged: Incr. from B > 60 ms [1, 11]: 0/18 | QTc interval Prolonged: > 450 ms (m); > 470 ms (f) [1, 11]: 0/18 | QTc interval ≥ 500 ms [1, 11]: 0/18 | Deaths ([1]; Study 1): No deaths | ECG abnormalities, clinical significance ([1]; Study 1): No clinical significant abnormalities | Ophthalmologic disorders possibly related to SAR97276A ([1]; Study 1): No ophthalmologic disorders | Participants with alkaline phosphatase elevated (> 1.5 x ULN) ([1]; Study 1): 19 | SAEs regarded as related to SAR97276A by the investigators ([1]; Study 1): None | Tolerability ([1]; Study 1): well tolerated | Patients with a serious adverse event (SAE), total ([1]; Study 1, all groups): four | Patients who experienced a TEAE, all cohorts ([1]; Study 1, out of 113 patients): 61 (54%) | AUC(0-t) [2, 12]: 479 ± 111 ng·h/mL | Cmax [2, 12]: 332 ± 91 ng/mL | AUC(0-t) [2, 13]: 674 ± 109 ng·h/mL | Cmax [2, 13]: 355 ± 51 ng/mL | AUC(0-t) ([2]; im, 0.25 mg/kg, Group 2B: 3 days IM twice daily 0.25 mg/kg, teenagers, n=8, AUC0-12 at steady state multiplied by 2): 1400 ± 270 ng·h/mL | Cmax ([2]; im, 0.25 mg/kg, Group 2B: 3 days IM twice daily 0.25 mg/kg, teenagers, n=8): 477 ± 91 ng/mL | AUC(0-t) [2, 14]: 1470 ± 375 ng·h/mL | Cmax [2, 14]: 862 ± 45 ng/mL | Vd [2, 15]: 0.217 L/kg | clearance [2, 15]: 6.55 mL/min/kg | AUC(0-t) [2, 16]: 480 ± 92 ng·h/mL | Cmax [2, 16]: 390 ± 55 ng/mL | Vd ([2]; adults): 0.27 L/kg | clearance ([2]; adults): 4.58 mL/min/kg | Inter-individual variability based on Cmax and AUC ([2]; whatever the populations or the route of administration): < 25% | Efficacy in malaria mouse model (malaria mouse model): highly efficacious | Curative 4-day dose (malaria mouse model; orally): 20 to 45 mg/kg/day | Curative 4-day dose (malaria mouse model; parenterally): 1 mg/kg/day | Efficacy in malaria monkey model (malaria monkey model): highly efficacious
